Measured values from patent US20210145833A1, “Methods and Compositions for Hair Growth by Activating Autophagy” (The Regents of the University of California, priority 2018, published 2021).
Entries after “also recorded” stand apart in the source; their conditions may differ.

Key:
[1] = test system: C57BL/6J mouse dorsal skin; assay: Assay for hair regeneration in mice (topical treatment of shaved telogen dorsal skin); conditions: for Rapid anagen entry on whole dorsal telogen skin: among treated mice
Protocol: Anagen in black mice is macroscopically recognizable by the melanin pigment visible through the skin, as the melanogenic activity of follicular melanocytes is strictly coupled to the anagen stage of the hair cycle.
All compounds were tested in both male and female mice. Every experiment was repeated independently at least 2 times. Some treatments with different agents were performed concurrently with shared control arms. C57BL/6J male mice were obtained at 6 or 8 weeks of age from Jackson Laboratories (Bar Harbor, ME). C57BL/6J female mice were obtained at 8 weeks of age from Jackson Laboratories (Bar Harbor, Me.). Mice were fed a standard chow diet and provided ad libitum access to food and water throughout the study. Mice were shaved dorsally in telogen, i.e., postnatal days of about 43-45 for males (unless otherwise indicated) and Day 58 for females, respectively. Vehicle control (25 μL DMSO, unless otherwise indicated) or test compounds (in 25 μL DMSO, unless otherwise indicated) were topically applied on the shaved skin every other day (unless otherwise described) for the duration of the experiments (3-6 weeks). Appearance of skin pigmentation and hair growth were monitored and documented by photos and videos. Progression was also assigned a value from 0 to 100 based on pigmentation levels and hair shaft density, with 0 indicating no hair growth (and no pigmentation) and higher number corresponding to darker skin and larger areas of dense hair growth. […] The vehicle DMSO was also mixed with PLO base for topical application.

[2] = test system: Beclin 1 S14 phosphorylation; assay: Western blot of treated mouse skin: phosphorylated Beclin 1 S14; assay type: in vivo; conditions: Day 5 post-treatment
Protocol: (§1) Male mice were shaved and treated every other day starting on Postnatal Day 43. After 5 days, telogen skin samples were harvested and stage confirmed. […] Tissue and cell debris were removed by centrifugation and the lysate was boiled for 5 min in 1×SDS loading buffer containing 5% β-mercaptoethanol.

p62/SQSTM1 = assay: Western blot of treated mouse skin: p62; assay type: in vivo; conditions: treated mouse telogen skin
Protocol: as §1

p62 transcript = assay: Quantitative RT-PCR of p62 transcript in treated skin; assay type: in vivo, mouse; conditions: 24 hours post-treatment, B2m internal control
Protocol: At 24 hours post-treatment, telogen skin samples were harvested and total RNA was isolated using TRIzol reagent (Invitrogen) from whole thickness mouse skin tissue. cDNA was synthesized using iScript Reverse Transcription Supermix (Bio-Rad). iTaq Universal SYBR Green Supermix (Bio-Rad) and a Bio-Rad CFX Connect instrument were used for quantitative RT-PCR. The primer sequences used for RT-qPCR are as follows: […]

LC3 = assay: Western blot of treated mouse skin: LC3; assay type: in vivo; conditions: telogen skin of mice treated topically 5 days
Protocol: as §1

[3] = test system: Beclin 1 S91 phosphorylation; assay: Western blot of treated mouse skin: phosphorylated Beclin 1 S91; assay type: in vivo
Protocol: (§2) Male mice were shaved and treated every other day starting on Postnatal Day 43. After 5 days, telogen skin samples were harvested and stage confirmed. Mouse skin tissue lysate was prepared by homogenization in T-PER Tissue Protein Extraction Buffer (Thermo Scientific, 78510) with protease inhibitors (Roche, 11836153001) and phosphatase inhibitors (Sigma, P5726) by FastPrep-24 (MP Biomedicals). Tissue and cell debris were removed by centrifugation and the lysate was boiled for 5 min in 1×SDS loading buffer containing 5% β-mercaptoethanol. Samples were then subjected to SDS-PAGE on NuPAGE Novex 12% Bis-Tris gels (Invitrogen, NP0343BOX), and western blotting was carried out with antibodies against LC3 (Novus, NB100-2220), p62 (Sigma, P0068), Phospho-Beclin-1 (Ser15) (corresponding to Ser14 in mouse) (Cell Signaling, 84966), Phospho-Beclin-1 (Ser93) (corresponding to Ser91 in mouse) (Cell Signaling, 14717), Beclin-1 (Abcam, ab207612), or GAPDH (Ambion, AM4300).

[4] = test system: autophagy related markers; assay: Western blot analysis of autophagy related markers in telogen skin; assay type: in vivo, mouse
Protocol: as §2

aged C57BL/6J mice [5] = assay: Oral α-KB treatment of aged mice (hair loss / hair coating); assay type: in vivo, mouse; conditions: 8 mM in drinking water over 30 weeks, aged female mice, 131 weeks of age
Protocol: For oral α-KB treatment, aged male and female C57BL/6J mice were obtained at 87 weeks of age (NIA aged rodent colonies). Mice were housed in a controlled SPF facility (22±2° C., 6:00-18:00, 12 h/12 h light/dark cycle) at UCLA. […] Treatment with either water (vehicle control), or α-KB (90 mg/kg bodyweight) in drinking water, started when mice were at 101 weeks of age. For topical α-KB treatment, aged male C57BL/6J mice were obtained at 21 months of age (NIA aged rodent colonies), shaved the following week, and topically treated with α-KB (32 mM) every other day for one month. All experiments were approved by the UCLA Chancellor's Animal Research Committee.

aged C57BL/6J mice [6] = assay: Topical treatment of shaved aged mice (pilot experiments); assay type: in vivo, mouse; conditions: pilot experiments on aged mice (data not shown)
Protocol: For oral α-KB treatment, aged male and female C57BL/6J mice were obtained at 87 weeks of age (NIA aged rodent colonies). Mice were housed in a controlled SPF facility (22±2° C., 6:00-18:00, 12 h/12 h light/dark cycle) at UCLA. […] For topical α-KB treatment, aged male C57BL/6J mice were obtained at 21 months of age (NIA aged rodent colonies), shaved the following week, and topically treated with α-KB (32 mM) every other day for one month. All experiments were approved by the UCLA Chancellor's Animal Research Committee.

hair follicles = conditions: treatment group vs control
Source text: Mouse dorsal skin was shaved before being collected for histological and molecular analyses. Full-thickness skin tissue was then fixed in 10% formalin solution (Sigma, HT501128) overnight and dehydrated for embedding in paraffin. […] Images were captured by Leica Aperio ScanScope AT brightfield system at ×20 magnification.

NC(=O)c1ncn([C@@H]2O[C@H](COP(=O)(O)O)[C@@H](O)[C@H]2O)c1N [AICAR, 5-aminoimidazole-4-carboxamide ribonucleotide]
Rapid anagen entry on whole dorsal telogen skin [1]: never | Hair regeneration ([1]; male mice shaved Postnatal Day 44, topical 16 mM every other day, Day 41 post-treatment): induces hair regeneration; also recorded: stimulated

C=CCNc1ncnc2ccc(Br)cc12 [SMER28]
Rapid anagen entry on whole dorsal telogen skin [1]: observed from time to time | Hair regeneration ([1]; male mice shaved Postnatal Day 45, topical 1 mM daily, Day 23 post-treatment): greatly induced hair regeneration | Hair regeneration ([1]; mice shaved Postnatal Day 51, topical 2 mM every other day, Day 20 post-treatment): induced hair regeneration | Beclin 1 S14 phosphorylation (mTOR-dependent) [2]: not increased | p62 expression (Western blot) (p62/SQSTM1): increased | p62 transcript levels (quantitative RT-PCR) (p62 transcript): increased | LC3 expression (Western blot) (LC3): increased | Beclin 1 S91 phosphorylation (AMPK-dependent) [3]: not increased

Cc1cc(Nc2cc(Cl)nc(Oc3ccc([N+](=O)[O-])cc3)n2)n[nH]1 [autophinib]
Effect of co-treatment on hair regeneration by α-KG (64 mM) ([1]; autophinib 4 mM, male mice shaved Postnatal Day 53, topical every other day, Day 20 post-treatment): inhibits hair regeneration by α-KG | Effect of co-treatment on SMER28 (2 mM) induced hair regeneration ([1]; autophinib 4 mM, mice shaved Postnatal Day 51, topical every other day, Day 20 post-treatment): inhibited; also recorded: prevented hair regeneration by SMER28

CO/C1=C\C(C)=C\[C@@H](C)[C@@H](O)[C@@H](C)C/C(C)=C/C=C/[C@H](OC)[C@@H]([C@@H](C)[C@@H](O)[C@H](C)[C@@]2(O)C[C@@H](O)[C@H](C)[C@@H](C(C)C)O2)OC1=O [bafilomycin A1]
Effect of co-treatment on hair regeneration by α-KG (64 mM) ([1]; bafilomycin 200 μM, male mice shaved Postnatal Day 52, topical every other day, Day 21 post-treatment): inhibits hair regeneration by α-KG

CN(C)C(=N)N=C(N)N [metformin]
Rapid anagen entry on whole dorsal telogen skin [1]: never | Hair regeneration ([1]; male mice shaved Postnatal Day 43, topical 160 mM every other day, vehicle H2O, Day 48 post-treatment): induces hair regeneration; also recorded: similarly induced | Autophagy induction ([4]; topical treatment of mouse skin): similarly induced

CC[C@H]1/C=C/C=C/C[C@@H](C)[C@H](O)[C@@](C)(O)C(=O)[C@@H](C)[C@H](O)[C@@H](C)C(=O)[C@@H](C)[C@H](O)[C@@H](C)/C=C/C(=O)O[C@@H]2[C@H](C)[C@H](CC1)O[C@]1(CC[C@H](C)[C@H](C[C@@H](C)O)O1)[C@H]2C [oligomycin]
Rapid anagen entry on whole dorsal telogen skin [1]: observed from time to time | Hair regeneration in female mice ([1]; female mice shaved Postnatal Day 58, topical 10 μM every other day, Day 26 post-treatment): stimulate hair regeneration | Hair regeneration ([1]; male mice shaved Postnatal Day 44, topical 100 μM every other day, Day 23 post-treatment): similarly promoted hair regeneration | Hair regeneration ([1]; male mice shaved Postnatal Day 44, topical 100 μM every other day, Day 23 post-treatment, listed as Oligomycin): induces hair regeneration | Beclin 1 S14 phosphorylation (mTOR-dependent) [2]: increased | LC3 expression (Western blot) (LC3): Increased autophagy | Beclin 1 S91 phosphorylation (AMPK-dependent) [3]: increased

CO[C@H]1C[C@@H]2CC[C@@H](C)[C@@](O)(O2)C(=O)C(=O)N2CCCC[C@H]2C(=O)O[C@H]([C@H](C)C[C@@H]2CC[C@@H](O)[C@H](OC)C2)CC(=O)[C@H](C)/C=C(\C)[C@@H](O)[C@@H](OC)C(=O)[C@H](C)C[C@H](C)/C=C/C=C/C=C/1C [rapamycin]
Adverse skin effect ([1]; topical 16 μM (data not shown)): hair loss and open wounds

CCC(=O)C(=O)O [α-KB, α-ketobutyrate]
Hair loss / hair coating in aged mice (aged C57BL/6J mice [5]): negates hair loss; also recorded: greatly improved hair coating | Rapid anagen entry on whole dorsal telogen skin [1]: never | Hair regeneration ([1]; male mice shaved Postnatal Day 44, topical 32 mM every other day, Day 39 post-treatment): induces hair regeneration; also recorded: substantially induced skin pigmentation and hair regeneration | Hair growth / regeneration in shaved aged animals (aged C57BL/6J mice [6]): only moderately promoted hair growth | Phosphorylated Beclin 1 (Western blot) ([4]; telogen skin of mice treated 5 days): elevated | LC3 expression (Western blot) (LC3): elevated

O=C(O)CCC(=O)C(=O)O [α-KG, α-ketoglutarate]
Hair growth / regeneration in shaved aged animals (aged C57BL/6J mice [6]): did not visibly increase | Follicles and proliferation marker Ki-67 expression (hair follicles): More follicles and high proliferation marker Ki-67 expression
